The record followed here is patent US10538555B2, “Macrocyclic inhibitors of the PD-1/PD-L1 and CD80(B7-1)/PD-L1 protein/protein interactions” (BRISTOL-MYERS SQUIBB COMPANY, priority 2014, dated 2020).

The experiment concerns the target T1, Human PD-L1/PD-1 (Homo sapiens, UniProt Q9NZQ7).
T1 construct: TVMV protease cleavage site (C); made in house; host or cells: HEK293T cells
In words: HTRF Human PD-L1/PD-1 binding assay (PD-1-Ig/PD-L1-His). Particulars: PD-L1-His 10 nM, PD-1-Ig 20 nM. The procedure, abridged: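 HTRF competition using HEK293T-expressed human PD-1(25-167)-Ig at 20 nM and PD-L1(18-239)-His at 10 nM, compound incubated first with PD-L1 for 15 min, then with PD-1 for 15 min. Signal read as 665/620 nm ratio 30 min after adding Eu anti-Ig and APC anti-His antibodies.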
(Time-resolved FRET reads energy transfer from a long-lived donor to a nearby acceptor.)

The mark [1] stands for this setting: class symbol, read-out: HTRF Human PD-L1/PD-1 Binding Assay IC50 Range.

Structures are written as SMILES. Like-named read-outs stand apart in the source and are kept apart here. *1 amine or outer side, *2 acyl side, *3 side chain or, on linkers, in order; H or OH if unused. Where a SMILES comes first, the peptide text is derived from it. Bridges are numbered along the chain shown (N, C = ends). [ ]: non-standard residue; d: D form. ξ: configuration not given here. Trp(1-CH2COOH) = N[C@@H](Cc1cn(CC(=O)O)c2ccccc12)C(=O)O; Phe(3,4,5-F3) = N[C@@H](Cc1cc(F)c(F)c(F)c1)C(=O)O; NMePhe(4-Me) = CN[C@@H](Cc1ccc(C)cc1)C(=O)O; NMeW = CN[C@@H](Cc1c[nH]c2ccccc12)C(=O)O; Bta = N[C@@H](Cc1csc2ccccc12)C(=O)O; NMeY = CN[C@@H](Cc1ccc(O)cc1)C(=O)O; Hyp = O=C(O)[C@@H]1C[C@@H](O)CN1; NMeAhp(2) = CCCCC[C@H](NC)C(=O)O; NMeF = CN[C@@H](Cc1ccccc1)C(=O)O; X1 = O=C([C@H]1COCCN1[*:1])[*:2]; dHyp = O=C(O)[C@H]1C[C@H](O)CN1; NMehSer = CN[C@@H](CCO)C(=O)O; NMeNle = CCCC[C@H](NC)C(=O)O; dNle = CCCC[C@@H](N)C(=O)O; hSer = N[C@@H](CCO)C(=O)O; NMeA = CN[C@@H](C)C(=O)O; Orn = NCCC[C@H](N)C(=O)O; Dab = NCC[C@H](N)C(=O)O; Dap = NC[C@H](N)C(=O)O; ξP = O=C(O)C1CCCN1; ξC = NC(CS)C(=O)O

T1 sequence (Q9NZQ7 with tags, fused parts or gaps): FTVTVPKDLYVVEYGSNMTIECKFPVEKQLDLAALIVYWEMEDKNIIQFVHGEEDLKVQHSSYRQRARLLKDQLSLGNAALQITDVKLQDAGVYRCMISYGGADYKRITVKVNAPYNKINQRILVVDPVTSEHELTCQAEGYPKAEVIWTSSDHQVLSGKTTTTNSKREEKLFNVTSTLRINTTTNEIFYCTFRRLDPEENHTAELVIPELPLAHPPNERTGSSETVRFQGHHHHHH

For `CCCC[C@H]1C(=O)N(C)[C@@H](CCOC)C(=O)N[C@@H](CN)C(=O)N[C@H](C(=O)NCC(N)=O)CSCC(=O)N[C@@H](Cc2ccc(O)cc2)C(=O)N(C)[C@@H](C)C(=O)N[C@@H](CC(=O)O)C(=O)N2CCC[C@H]2C(=O)N[C@@H](Cc2c[nH]cn2)C(=O)N[C@@H](CCC(N)=O)C(=O)N2C[C@H](O)C[C@H]2C(=O)N[C@@H](Cc2c[nH]c3ccccc23)C(=O)N[C@@H](CO)C(=O)N[C@@H](Cc2c[nH]c3ccccc23)C(=O)N1C` [Example 10145] ({CH2CO}-Y[NMeA]DPHQ[Hyp]WSW[NMeNle][NMehSer](Me)[Dap]CG-NH2; thioether N-14), the IC50 under setting [1] fell in the range of 0.001 to 0.0099 µM.

On to `CCCC[C@H]1C(=O)N2CCC[C@@H]2C(=O)N[C@@H](CC(=O)O)C(=O)N[C@@H](C(C)C)C(=O)N(C)[C@@H](Cc2ccccc2)C(=O)N[C@@H](CCN)C(=O)N2CCOC[C@@H]2C(=O)N[C@@H](Cc2c[nH]c3ccccc23)C(=O)N[C@@H](Cc2ccc(O)cc2)C(=O)N[C@@H](CCC(=O)O)C(=O)N[C@H](C(=O)NCC(N)=O)CSCC(=O)N[C@@H](Cc2cc(F)c(F)c(F)c2)C(=O)N(C)[C@@H](Cc2ccc(O)cc2)C(=O)N1C` [Example 10624] ({CH2CO}-[Phe(3,4,5-F3)][NMeY][NMeNle][dP]DV[NMeF][Dab][X1]WYECG-NH2; thioether N-13), for which the IC50 under setting [1] lay within 0.01 to 0.0999 µM.

For the compound `CCCC[C@H]1NC(=O)[C@H](Cc2c[nH]c3ccccc23)NC(=O)[C@H](CO)NC(=O)[C@H](Cc2c[nH]c3ccccc23)NC(=O)[C@@H]2C[C@@H](O)CN2C(=O)[C@H](CCCN)NC(=O)[C@H](Cc2cnc[nH]2)NC(=O)[C@@H]2CCCN2C(=O)[C@H](CC(=O)O)NC(=O)[C@H](C)N(C)C(=O)[C@H](Cc2ccc(O)cc2)NC(=O)CSCC(C(=O)NCC(N)=O)NC(=O)[C@H](CCC(=O)O)NC(=O)[C@H](CCCC)N(C)C1=O` (some centres unmarked) [Example 10130] ({CH2CO}-Y[NMeA]DPH[Orn][Hyp]WSW[dNle][NMeNle]E[ξC]G-NH2; thioether N-14), the IC50 under setting [1] fell in the range of 1 to 10 µM.

With `CCCC[C@H]1C(=O)N(C)[C@@H](CCCC)C(=O)N[C@@H](CCCN)C(=O)N[C@H](C(=O)NCC(N)=O)CSCC(=O)N[C@@H](Cc2ccc(OC)cc2)C(=O)N(C)[C@@H](C)C(=O)N[C@@H](CC(=O)O)C(=O)N2CCC[C@H]2C(=O)N[C@@H](CN)C(=O)N[C@@H](CCCCN)C(=O)N2C[C@H](O)C[C@H]2C(=O)N[C@@H](Cc2c[nH]c3ccccc23)C(=O)N[C@@H](CC(=O)O)C(=O)N[C@@H](Cc2c[nH]c3ccccc23)C(=O)N1C` [Example 7129] ({CH2CO}-Y(Me)[NMeA]DP[Dap]K[Hyp]WDW[NMeNle][NMeNle][Orn]CG-NH2; thioether N-14), the IC50 under setting [1] fell in the range of 0.001 to 0.0099 µM.

`CCCC[C@H]1C(=O)N(C)[C@@H](CCCC)C(=O)N[C@@H](CCC(=O)O)C(=O)N[C@H](C(=O)NCC(N)=O)CSCC(=O)N[C@@H](Cc2ccc(O)cc2)C(=O)N(C)[C@@H](C)C(=O)N[C@@H](CC(N)=O)C(=O)N2CCC[C@H]2C(=O)N[C@@H](CN)C(=O)N[C@@H](CCC(=O)O)C(=O)N2C[C@H](O)C[C@H]2C(=O)N[C@@H](Cc2c[nH]c3ccccc23)C(=O)N[C@@H](CO)C(=O)N[C@@H](Cc2c[nH]c3ccccc23)C(=O)N1C` [Example 5242] ({CH2CO}-Y[NMeA]NP[Dap]E[Hyp]WSW[NMeNle][NMeNle]ECG-NH2; thioether N-14): under setting [1], the IC50 lay within 0.001 to 0.0099 µM.

Turning to `CCCC[C@H]1C(=O)N(C)[C@@H](C)C(=O)N[C@@H](CCCNC(=N)N)C(=O)NC(C(=O)N[C@@H](CO)C(N)=O)CSCC(=O)N[C@@H](Cc2ccc(O)cc2)C(=O)N(C)[C@@H](C)C(=O)N[C@@H](CC(N)=O)C(=O)N2CCC[C@H]2C(=O)N[C@@H](CO)C(=O)N[C@H](CC(C)C)C(=O)N2C[C@H](O)C[C@H]2C(=O)N[C@@H](Cc2c[nH]c3ccccc23)C(=O)N[C@@H](CO)C(=O)N[C@@H](Cc2csc3ccccc23)C(=O)N1C` (stereo partly drawn) [Example 9124] ({CH2CO}-Y[NMeA]NPS[dL][Hyp]WS[Bta][NMeNle][NMeA]R[ξC]S-NH2; thioether N-14), the IC50 under setting [1] fell in the range of 0.01 to 0.0999 µM.

For `CCCCC[C@H]1C(=O)N[C@@H](CC(C)C)C(=O)N[C@H](C(=O)NCC(N)=O)CSCC(=O)N[C@@H](Cc2ccc(O)cc2)C(=O)N(C)[C@@H](C)C(=O)N[C@@H](CC(N)=O)C(=O)N2CCC[C@H]2C(=O)N[C@@H](Cc2cnc[nH]2)C(=O)N[C@@H](CCC(N)=O)C(=O)N2C[C@H](O)C[C@H]2C(=O)N[C@@H](Cc2c[nH]c3ccccc23)C(=O)N[C@@H](CCN)C(=O)N[C@@H](Cc2cn(CC(=O)O)c3ccccc23)C(=O)N(C)[C@@H](CCCC)C(=O)N1C` [Example 6415] ({CH2CO}-Y[NMeA]NPHQ[Hyp]W[Dab][Trp(1-CH2COOH)][NMeNle][NMeAhp(2)]LCG-NH2; thioether N-14), under “read-out: HTRF Human PD-L1/PD-1 Binding Assay IC50”, the IC50 is 0.177 µM.

On to `CCCC[C@H]1C(=O)N[C@@H](CC(C)C)C(=O)N[C@H](C(=O)NCC(N)=O)CSCC(=O)N[C@@H](Cc2ccc(O)cc2)C(=O)N(C)[C@@H](C)C(=O)N[C@@H](CC(N)=O)C(=O)N2CCCC2C(=O)N[C@@H](CN)C(=O)N[C@@H](CC(C)C)C(=O)N2C[C@H](O)C[C@H]2C(=O)N[C@@H](Cc2c[nH]c3ccccc23)C(=O)N[C@@H](CCN)C(=O)N(C)[C@@H](Cc2c[nH]c3ccccc23)C(=O)N(C)[C@@H](CCCC)C(=O)N1C` (some centres unmarked) [Example 5265] ({CH2CO}-Y[NMeA]N[ξP][Dap]L[Hyp]W[Dab][NMeW][NMeNle][NMeNle]LCG-NH2; thioether N-14), for which, under setting [1], the IC50 was 0.01 to 0.0999 µM.

As for `CCCC[C@H]1C(=O)N2C[C@@H](O)C[C@@H]2C(=O)N[C@@H](CC(=O)O)C(=O)N[C@@H](C(C)C)C(=O)N(C)[C@@H](Cc2ccc(C)cc2)C(=O)N[C@@H](CCCN)C(=O)N2CCC[C@@H]2C(=O)N[C@@H](Cc2c[nH]c3ccccc23)C(=O)N[C@@H](Cc2ccc(O)cc2)C(=O)N[C@@H](CCCN)C(=O)N[C@H](C(=O)NCC(N)=O)CSCC(=O)N[C@@H](Cc2cc(F)c(F)c(F)c2)C(=O)N(C)[C@@H](Cc2ccccc2)C(=O)N1C` [Example 10121] ({CH2CO}-[Phe(3,4,5-F3)][NMeF][NMeNle][dHyp]DV[NMePhe(4-Me)][Orn][dP]WY[Orn]CG-NH2; thioether N-13), the IC50 under setting [1] was in the range of 0.1 to 0.99 µM.

With `CCCC[C@H]1C(=O)N(C)[C@@H](CCCC)C(=O)N[C@@H](C)C(=O)N[C@H](C(=O)NCC(N)=O)CSCC(=O)N[C@@H](Cc2ccc(O)cc2)C(=O)N(C)[C@@H](C)C(=O)N[C@@H](CC(=O)O)C(=O)N2CCC[C@H]2C(=O)N[C@@H](Cc2cnc[nH]2)C(=O)N[C@@H](CCC(N)=O)C(=O)N2C[C@H](O)C[C@H]2C(=O)N[C@@H](Cc2c[nH]c3ccccc23)C(=O)N[C@@H](CCN)C(=O)N[C@@H](Cc2cn(CC(=O)O)c3ccccc23)C(=O)N1C` [Example 6158] ({CH2CO}-Y[NMeA]DPHQ[Hyp]W[Dab][Trp(1-CH2COOH)][NMeNle][NMeNle]ACG-NH2; thioether N-14), the IC50 under setting [1] is 0.001 to 0.0099 µM.

Take `CCCC[C@H]1C(=O)N(C)[C@@H](CCCC)C(=O)N[C@@H](CCC(=O)O)C(=O)NC(C(=O)NCC(N)=O)CSCC(=O)N[C@@H](Cc2ccc(O)cc2)C(=O)N(C)[C@@H](C)C(=O)N[C@@H](CC(N)=O)C(=O)N2CCC[C@H]2C(=O)N[C@@H](CC(N)=O)C(=O)N[C@@H](CC(C)C)C(=O)N2CCC[C@H]2C(=O)N[C@@H](Cc2c[nH]c3ccccc23)C(=O)N[C@@H](CCO)C(=O)N[C@@H](Cc2c[nH]c3ccccc23)C(=O)N1C` (some centres unmarked) [Example 9184] ({CH2CO}-Y[NMeA]NPNLPW[hSer]W[NMeNle][NMeNle]E[ξC]G-NH2; thioether N-14): under setting [1], the IC50 fell in the range of 0.01 to 0.0999 µM.
